# Columns and labels:
# [1] = cited from earlier work
# [2] = Permeability and efflux ratio of saquinavir across Caco-2 cell monolayers; format: in vitro ADME; conditions: human, pH 7.4, Caco-2 monolayer
# Method: Caco-2 cells (ATCC, Manassas, Va.) were kindly provided by Dr. Gunaje Jayarama (Department of Pharmaceutical Sciences, South Dakota State University, Brookings, S. Dak.) at passage #4. Cells were seeded at 1×10^6 cells onto […]®polyester filter membranes (pore size 0.4 um, growth area 4.67 cm^2) in 6 welled sterile plates ([…]®, Corning Costar Corp., Cambridge, Mass.). The cells were grown in DMEM (4.5 g/L glucose) medium supplemented with 20% FBS, 1% non-essential amino acids, I % L-glutamine, streptomycin (100 μg/ml) and penicillin (100 IU/ml). The cultures were maintained in an atmosphere of 5% CO2 and 95% air, and 95% relative humidity at 37° C. (CO2 incubator, Galaxy 170S). The growth medium was changed every day in the first two weeks followed by three times a week until time of use. When reaching confluency, cells were trypsinized and passage numbers 25-35 were used in the experiments. The cells were allowed to differentiate in the […]® filter membrane during 3 weeks in complete growth medium.
# The permeability of saquinavir and saquinavir loaded ZLF nanoparticles were studied across Caco-2 cell monolayers in an absorptive direction apical to basolateral (AP-BL) or secretory direction basolateral to apical (BL-AP). Before the permeability experiments, the cell monolayers were rinsed twice with HBSS, pH 7.4, and equilibrated under experimental conditions for 20 min. Then, the apical fluid was replaced by 1.5 ml of experimental solution. Transepithelial electrical resistance (TEER) was measured using an EVOM meter (World Precision Instruments, Inc., Sarasota, Fla.) to ensure monolayer confluence and integrity. TEER was calculated as follows: […]
# Where R(Ω) is the measured resistance and A is the surface area (cm^2). […] Results are expressed as apparent permeability coefficient (Papp), calculated according to: […]
# Saquinavir content after extraction was analyzed in the samples using the HPLC as recited herein. […]
# The ratio of effective permeability for saquinavir or efflux ratio was calculated as follows: […]
# [3] = background statement; cited from earlier work
Compound,Log P [1],solubility in water [1],"efflux ratio at 3 h, 20 μM ([2]; Papp B-A/Papp A-B)","Papp A→B at 3 h, 20 μM ([2]; apical to basolateral, free saquinavir at 20 μM) [×10⁻⁶ cm/s]","Papp B→A at 3 h, 20 μM ([2]; basolateral to apical, free saquinavir at 20 μM) [×10⁻⁶ cm/s]",bioavailability [3]
CC1=C(/C=C/C(C)=C/C=C/C(C)=C/CO)C(C)(C)CCC1 [Retinol],6.2,practically insoluble in water,,,,
CC(C)(C)NC(=O)[C@@H]1C[C@@H]2CCCC[C@@H]2CN1C[C@@H](O)[C@H](Cc1ccccc1)NC(=O)[C@H](CC(N)=O)NC(=O)c1ccc2ccccc2n1 [Saquinavir],,,16.7,0.85 ± 0.21,14.2 ± 5.3,0.7-4%

# Source: patent US20150150822A1, “NOVEL CORE-SHELL NANOPARTICLES FOR ORAL DRUG DELIVERY” (South Dakota State University, priority 2013, published 2015)
